Laboratory results published in patent publication US8703805B2 (Exelixis Patent Company LLC, priority 2005, dated 2014).

The compounds below were run on LXRα and/or LXRβ (assay: LXR/LXRE co-transfection assay (luciferase reporter, CV-1 cells)). Settings: IC50 or EC50 for LXR (LXRα and/or LXRβ, not distinguished), tested as described in Example 109, CV-1 cells.
Type: cell-based, human
Text: To measure the ability of compounds to activate or inhibit the transcriptional activity of LXR in a cell based assay, the co-transfection assay was used. It has been shown that LXR functions as a heterodimer with RXR. For the co-transfection assay; expression plasmids for LXR and RXR are introduced via transient transfection into mammalian cells along with a luciferase reporter plasmid that contains one copy of a DNA sequence that is bound by LXR-RXR heterodimers (LXRE; Willy, P. ad. 1995). Treatment of transfected cells with an LXR agonist increases the transcriptional activity of LXR, which is measured by an increase in luciferase activity.
CV-1 African Green Monkey Kidney Cells Co-transfection expression plasmids, comprising full-length LXRα (pCMX-h LXRα, LXRβ (pCMX-hLXRβ), or RXRα (pCMX-RXR), reporter plasmid (LXREx1-Tk-Luciferase), and control (pCMX-Galactosidase expression vector) (Willey et al. Genes & Development 91033-1045 (1995)). Transfection reagent such as FuGENE6 (Roche). 1× Cell lysis buffer (1% Triton X 100 (IT Baker X200-07), 10% Glycerol (JT Baker M778-07), 5 mM Ditriotreitol (Quantum Bioprobe DTT03; add fresh before lysing), 1 mM EGTA (Ethylene Glycol-bis(B-Amino ethyl ether)-N,N,N′,N′-Tetracetic Acid) (Sigma E-4378), 25 mM Tricine (ICN 807420) pH 7.8) 1× Luciferase assay buffer (pH at 7.8) (0.73 mM ATP, 22.3 mM Tricine, 0.11 mM EDTA, 33.3 mM DTT) 1× Luciferrin/CoA (11 mM Luciferin, 3.05 mM Coenzyme A, 10 mM HEPES) Preparation of Screening Reagents
CV-1 cells were prepared 24 hours prior to the experiment by plating them into T-175 flasks or 500 cm^2 dishes in order to achieve 70-80% confluency on the day of the transfection. The number of cells to be transfected was determined by the number of plates to be screened. each 384 well plate requires 1.92×10^6 cells or 5000 cells per well. DNA Transfection Reagent was prepared by mixing the required plasmid DNAs with a cationic lipid transfection reagent FuGENE6 (Roche) by following the instructions provided with the reagents. Optimal DNA amounts were determined empirically per cell line and size of vessel to be transfected. 10-12 mL of media was added to the DNA Transfection Reagent and this mixture was added to the cells after aspirating media from the T175 cm^2 flask. Cells were then incubated at least 5 hours at 37° C. to prepare screening cells.
Luciferase assay reagent was prepared by combining before use (per 10 mL): […], 0.54 mL of 1× Luciferrin/CoA; 0.54 mL of 0.2 M Magnesium sulfate
Assay plates were prepared by dispensing 5 μL of compound per well of a 384 well plate to achieve final compound concentration of 10 μM and no more than 1% DMSO. Media was removed from the screening cells, the cells trypsinized, harvested cells by centrifugation, counted, and plated at a density of approximately 5000 cells per well in the 384 well assay plate prepared above in a volume of about 45 μL. Assay plates containing both compounds and screening cells (50 μL in total volume) were incubated for 20 hours at 37° C.
After incubation with compounds, media was removed from the cells and lysis buffer (30 μL/well) added. After 30 minutes at ambient temperature, luciferase assay buffer (30 μL/well) was added and the assay plates read on a luminometer (PE Biosystems Northstar reader with on-board injectors, or equivalent). Plates were read immediately after addition of luciferase assay buffer.
The LXR/LXRE co-transfection assay can be used to establish the EC50/IC50 values for potency and percent activity or inhibition for efficacy. Efficacy defines the activity of a compound relative to a high control ((N-(3-((4-fluorophenyl)-(naphthalene-2-sulfonyl)amino)propyl)-2,2-dimethylpropionamide)) or a low control (DMSO/vehicle). The dose response curves are generated from an 8 point curve with concentrations differing by ½ LOG units. each point represents the average of 4 wells of data from a 384 well plate. […]

| SMILES | EC50 [nM] |
| --- | --- |
| CC(C)(O)c1nn(-c2ccccc2OC(F)(F)F)c(-c2ccc(-c3cccc(S(C)(=O)=O)c3)s2)c1Br [Example 1359, 2-(4-bromo-5-{5-[3-(methylsulfonyl)phenyl]-2-thienyl)-1-{2-[(trifluoromethyl)oxy]phenyl}-1H-pyrazol-3-yl)propan-2-ol] | < 1000 |
| CC(C)(O)c1cc(-c2ccc(-c3cccc(S(C)(=O)=O)c3)s2)n(-c2ccccc2C(F)(F)F)n1 [Example 1158, 2-(5-{5-[3-(methylsulfonyl)phenyl]-2-thienyl}-1-[2-(trifluoromethyl)phenyl]-1H-pyrazol-3-yl)propan-2-ol] | < 1000 |
| Cc1cc(-c2cccc(S(C)(=O)=O)c2)ccc1-c1cc(C(C)(C)O)nn1Cc1cccc(Cl)c1Cl [Example 1384, 2-(1-(2,3-dichlorobenzyl)-5-(3-methyl-3′-(methylsulfonyl)biphenyl-4-yl)-1H-pyrazol-3-yl)propan-2-ol] | < 1000 |
| CS(=O)(=O)c1cccc(-c2ccc(-n3nc(C(F)(F)F)cc3-c3ccccc3C(F)(F)F)nc2)c1 [Example 1231, 5-[3-(methylsulfonyl)phenyl]-2-{3-(trifluoromethyl)-5-[2-(trifluoromethyl)phenyl]-1H-pyrazol-1-yl}pyridine] | < 1000 |
| Cc1cc(-c2cccc(S(C)(=O)=O)c2)ccc1-n1nc(C(C)(C)O)cc1-c1cccc(F)c1F [Example 116, 2-(5-(2,3-difluorophenyl)-1-(3-methyl-3′-(methylsulfonyl)biphenyl-4-yl)-1H-pyrazol-3-yl)propan-2-ol] | < 1000 |
| CC(C)NC(=O)Oc1cccc(-c2ccc(-c3cc(C(C)(C)O)nn3-c3ccccc3Cl)cc2)c1 [Example 1296, 4′-[1-(2-chlorophenyl)-3-(1-hydroxy-1-methylethyl)-1H-pyrazol-5-yl]biphenyl-3-yl (1-methylethyl)carbamate] | 1000 to 10000 |
| CCS(=O)(=O)c1cccc(-c2ccc(-c3cc(C(C)(C)O)nn3-c3ccccc3Cl)s2)c1 [Example 1316, 2-[1-(2-chlorophenyl)-5-{5-[3-(ethylsulfonyl)phenyl]-2-thienyl}-1H-pyrazol-3-yl]propan-2-ol] | 1000 to 10000 |
| COC(=O)c1cccc(-c2ccc(-c3cc(C(F)(F)F)nn3-c3ccccc3Cl)cc2)c1 [Example 1208, methyl 4′-[1-(2-chlorophenyl)-3-(trifluoromethyl)-1H-pyrazol-5-yl]biphenyl-3-carboxylate] | 1000 to 10000 |
| CC(C)(O)c1nn(-c2ccccc2Br)c(-c2ccc(-c3cccc(S(C)(=O)=O)c3)s2)c1Cl [Example 1368, 2-[1-(2-bromophenyl)-4-chloro-5-{5-[3-(methylsulfonyl)phenyl]-2-thienyl}-1H-pyrazol-3-yl]propan-2-ol] | < 1000 |
| CC(C)(O)c1cc(-c2ccc(-c3cccc(OC(F)(F)F)c3)s2)n(-c2ccccc2Cl)n1 [Example 1274, 2-[1-(2-chlorophenyl)-5-(5-{3-[(trifluoromethyl)oxy]phenyl}-2-thienyl)-1H-pyrazol-3-yl]propan-2-ol] | 1000 to 10000 |
| CC(C)(O)c1cc(-c2ccc(-c3cccc(S(C)(=O)=O)c3)s2)n(-c2cccc(Cl)c2)n1 [Example 1256, 2-[1-(3-chlorophenyl)-5-{5-[3-(methylsulfonyl)phenyl]-2-thienyl}-1H-pyrazol-3-yl]propan-2-ol] | 1000 to 10000 |
| CC(C)(O)c1ccc(-c2ccc(-c3cc(C(F)(F)F)nn3-c3cc(Cl)ccc3Cl)s2)cc1S(C)(=O)=O [Example 1304, 2-[4-{5-[1-(2,5-dichlorophenyl)-3-(trifluoromethyl)-1H-pyrazol-5-yl]-2-thienyl}-2-(methylsulfonyl)phenyl]propan-2-ol] | < 1000 |
| CC(C)NC(=O)c1cccc(-c2ccc(-c3cc(C(C)(C)O)nn3-c3ccccc3Cl)cc2)c1 [Example 1292, 4′-[1-(2-chlorophenyl)-3-(1-hydroxy-1-methylethyl)-1H-pyrazol-5-yl]-N-(1-methylethyl)biphenyl-3-carboxamide] | 1000 to 10000 |
| CC(C)(O)c1cc(-c2cccc(Cl)c2Cl)n(-c2ccc(-c3cccc(S(C)(=O)=O)c3)cc2)n1 [Example 106, 2-(5-(2,3-dichlorophenyl)-1-(3′-(methylsulfonyl)biphenyl-4-yl)-1H-pyrazol-3-yl)propan-2-ol] | 1000 to 10000 |
| CCC(O)(CC)c1cc(-c2ccc(-c3cccc(S(C)(=O)=O)c3)s2)n(-c2ccccc2Cl)n1 [Example 1174, 3-[1-(2-chlorophenyl)-5-{5-[3-(methylsulfonyl)phenyl]-2-thienyl}-1H-pyrazol-3-yl]pentan-3-ol] | < 1000 |
| CC(C)(O)c1cc(-c2ccc(-c3cccc(S(C)(=O)=O)c3)s2)n(-c2cccnc2)n1 [Example 1346, 2-(5-{5-[3-(methylsulfonyl)phenyl]-2-thienyl}-1-pyridin-3-yl-1H-pyrazol-3-yl)propan-2-ol] | < 1000 |

Now from value to compound:

| EC50 [nM] | SMILES |
| --- | --- |
| 1000 to 10000 | COC(=O)CNC(=O)c1ccc(-c2cc(C(F)(F)F)nn2-c2ccccc2Cl)cc1 [Example 1354, methyl N-({4-[1-(2-chlorophenyl)-3-(trifluoromethyl)-1H-pyrazol-5-yl]phenyl}carbonyl)glycinate] |
| < 1000 | CS(=O)(=O)c1cccc(-c2ccc(-c3cc(C4(O)CC4)nn3-c3ccccc3Cl)s2)c1 [Example 1245, 1-[1-(2-chlorophenyl)-5-{5-[3-(methylsulfonyl)phenyl]-2-thienyl}-1H-pyrazol-3-yl]cyclopropanol] |
| 1000 to 10000 | CN1CCC(N(C(=O)c2ccc(-c3cc(C(F)(F)F)nn3-c3ccccc3Cl)cc2)C2CC2)CC1 [Example 1029, 4-[1-(2-chlorophenyl)-3-(trifluoromethyl)-1H-pyrazol-5-yl]-N-cyclopropyl-N-(1-methylpiperidin-4-yl)benzamide] |
| < 1000 | CN(C)C(C)(C)c1cc(-c2ccc(-c3cccc(S(C)(=O)=O)c3)s2)n(-c2ccccc2Cl)n1 [Example 1172, 2-[1-(2-chlorophenyl)-5-{5-[3-(methylsulfonyl)phenyl]-2-thienyl}-1H-pyrazol-3-yl]-N,N-dimethylpropan-2-amine] |
| 1000 to 10000 | COC(=S)c1cc(-c2ccc(-c3cccc(S(C)(=O)=O)c3)s2)n(-c2ccccc2C(F)(F)F)n1 [Example 1179, O-methyl 5-{5-[3-(methylsulfonyl)phenyl]-2-thienyl}-1-[2-(trifluoromethyl)phenyl]-1H-pyrazol-3-carbothioate] |
| < 1000 | CC(C)(O)c1cc(-c2cccc(Cl)c2Cl)n(-c2ccc(-c3cccc(S(C)(=O)=O)c3)cc2Cl)n1 [Example 135, 2-(1-(3-chloro-3′-(methylsulfonyl)biphenyl-4-yl)-5-(2,3-dichlorophenyl)-1H-pyrazol-3-yl)propan-2-ol] |
| < 1000 | CC(C)(O)c1cccc(-n2nc(C(F)(F)F)cc2-c2ccc(-c3cccc(S(C)(=O)=O)c3)s2)c1 [Example 1187, 2-{3-[5-{5-[3-(methylsulfonyl)phenyl]-2-thienyl}-3-(trifluoromethyl)-1H-pyrazol-1-yl]phenyl}propan-2-ol] |
| < 1000 | CC(C)(O)c1cccc(-c2ccc(-c3cc(C(F)(F)F)nn3-c3ccccc3Cl)cc2)c1 [Example 1221, 2-{4′-[1-(2-chlorophenyl)-3-(trifluoromethyl)-1H-pyrazol-5-yl]biphenyl-3-yl}propan-2-ol] |
| 1000 to 10000 | CC(C)(O)c1cc(-c2ccc(-c3cccc(NS(=O)(=O)C(F)(F)F)c3)cc2)n(-c2ccccc2Cl)n1 [Example 1310, N-{4′-[1-(2-chlorophenyl)-3-(1-hydroxy-1-methylethyl)-1H-pyrazol-5-yl]biphenyl-3-yl}-1,1,1-trifluoromethanesulfonamide] |
